As usually defined, the IC50 is the concentration that inhibits the measured activity by half.

24 molecules from patent US9394233B2, “ROS-activated compounds as selective anti-cancer therapeutics” (University of Cincinnati, priority 2012, dated 2016) can be followed below.

The structures appear in SMILES notation.

The subject of the assay is HeLa cells. The assay can be described thus: HeLa cell viability, MTT assay. Type of assay: cell-based. The note with it: Homo sapiens, 50% reduction in percent of viable HeLa cells, read-out: IC50 against HeLa Cells. Here is the method:
Table 1 sets forth ROS-Activated compounds of the present invention, together with their IC50 values corresponding to a 50% reduction in the percent of viable HeLa cells in vitro as measured via MTT assay.
All synthesized compounds were purified to greater than 98% purity prior to cell testing. HeLa cell viability assays were performed using an MTT assay.
The general structure of the ROS-activated compounds disclosed herein was probed to determine how positions in the structure alter potency in aqueous media. Compounds were screened against HeLa cells to determine IC50 values. Cell viability was monitored by an MTT dye that forms a purple formazan product in viable cells that are undergoing metabolism. […] Errors reported are between two separate experiments; independent curve-fitting had r greater than 0.95).
In the case of `CCN(CCOc1ccc(NC(C)=O)cc1)c1ccccc1` [Compound 21, N-(4-(2-(ethyl(phenyl)amino)ethoxy)phenyl)acetamide], the IC50 was 45 µM.
With `CCN(CCOc1ccc(OC)cc1)c1ccccc1` [Compound 24, N-ethyl-N-(2-(4-methoxyphenoxy)ethyl)aniline] the figure was above 125 µM; with `CN(CCOc1ccc(O)cc1)Cc1ccccc1` [Compound 8, 4-(2-(benzyl(methyl)amino)ethoxy)phenol], 30 µM.
With `CN(CCOc1ccc(O)cc1)c1ccccc1` [Compound 2, 4-(2-(methyl(phenyl)amino)ethoxy)phenol] the figure was 18 µM.
As for `Oc1ccc(O)cc1` [Hydroquinone, reference compound], the figure is 161 µM; as for `CCN(CC(=O)Nc1ccc(O)cc1)c1ccccc1` [Compound 17, 2-(ethyl(phenyl)amino)-N-(4-hydroxyphenyl)acetamide], 108 µM.
For `Oc1ccc(OCCNc2ccccc2)cc1` [Compound 1, 4-(2-(phenylamino)ethoxy)phenol], the IC50 was determined as 30 µM.
Take `CN(CCCCCOc1ccc(O)cc1)c1ccccc1` [Compound 13, 4-(5-(methyl(phenyl)amino)pentyloxy)phenol]: the 50% inhibitory concentration (IC50) was determined as 9 µM.
Take `CCN(CCOc1cccc(O)c1)c1ccccc1` [Compound 18, 3-(2-(ethyl(phenyl)amino)ethoxy)phenol]: the IC50 stood at 44 µM.
With `CCN(CCOc1ccccc1O)c1ccccc1` [Compound 19, 2-(2-(ethyl(phenyl)amino)ethoxy)phenol] the figure was 77 µM; with `CC(C)N(CCOc1ccc(O)cc1)c1ccccc1` [Compound 4, 4-(2-(isopropyl(phenyl)amino)ethoxy)phenol], 53 µM; with `CN(CCCCOc1ccc(O)cc1)c1ccccc1` [Compound 11, 4-(4-(methyl(phenyl)amino)butoxy)phenol], 8 µM.
With `CCN(CCOc1ccc(N)cc1)c1ccccc1` [Compound 20, N-(2-(4-aminophenoxy)ethyl)-N-ethylaniline] the figure was above 125 µM.
With `CCN(CCCOc1ccc(O)cc1)c1ccccc1` [Compound 10, 4-(3-(ethyl(phenyl)amino)propoxy)phenol] the figure was 16 µM; with `COc1ccc(N(CCOc2ccc(O)cc2)CCOc2ccc(O)cc2)cc1` [Compound 26, 4,4′-((((4-methoxyphenyl)azanediyl)bis(ethane-2,1-diyl))bis(oxy))diphenol], 15 µM.
Take `COC(=O)CCCc1ccc(N(CCOc2ccc(O)cc2)CCOc2ccc(O)cc2)cc1` [Compound 27, methyl 4-(4-(bis(2-(4-hydroxyphenoxy)ethyl)amino)phenyl)butanoate]: the concentration for half-maximal inhibition (IC50) is 77 µM.
With `Oc1ccc(OCCNc2ccc(Br)cc2)cc1` [Compound 7, 4-(2-((4-bromophenyl)amino)ethoxy)phenol] the figure was 31 µM; with `O=C1C=CC(=O)C=C1` [benzoquinone, reference compound], 227 µM.
As for `CC(=O)Oc1ccc(OCCN(CCOc2ccc(OC(C)=O)cc2)c2ccccc2)cc1` [Compound 29, (((phenylazanediyl)bis(ethane-2,1-diyl))bis(oxy))bis(4,1-phenylene) diacetate], the figure is 12 µM.
For the molecule `CCN(CCSc1ccc(O)cc1)c1ccccc1` [Compound 15, 4-((2-(ethyl(phenyl)amino)ethyl)thio)phenol], the half-inhibitory concentration (IC50) is 46 µM.
As for `CCN(CCCCOc1ccc(O)cc1)c1ccccc1` [Compound 12, 4-(4-(ethyl(phenyl)amino)butoxy)phenol], the figure is 14 µM; as for `COc1ccc(N(C)CCOc2ccc(O)cc2)cc1` [Compound 6, 4-(2-((4-methoxyphenyl)(methyl)amino)ethoxy)phenol], 13 µM.
As for `COc1ccc(NCCOc2ccc(O)cc2)cc1` [Compound 5, 4-(2-((4-methoxyphenyl)amino)ethoxy)phenol], the figure is 24 µM; as for `CCN(CCOc1ccc(N2CCCCC2)cc1)c1ccccc1` [Compound 22, N-ethyl-N-(2-(4-(piperidin-1-yl)phenoxy)ethyl)aniline], above 125 µM.
